{
  "source": "patent US6750009B2",
  "about": "(priority 2002, dated 2004)",
  "key": {"RSV minigenome [1]": {"test_system": "RSV minigenome", "type": "cell-based, Respiratory syncytia virus (RSV)"}, "RSV minigenome [2]": {"test_system": "RSV minigenome", "type": "cell-based, Respiratory syncytia virus (RSV)", "remark": "listed apart in the source"}, "Sindbis replicon": {"test_system": "Sindbis replicon", "type": "cell-based, Sindbis virus", "conditions": "for Sindbis Mixed Viral Replicon Culture % of Control (ave): Table 3"}, "HCV replicon": {"test_system": "HCV replicon", "type": "cell-based, hepatitis C virus"}, "YFR replicon": {"test_system": "YFR replicon", "type": "cell-based, yellow fever virus", "conditions": "for YFR Mixed Viral Replicon Culture % of Control (ave): co-cultured HCV/Sindbis/YFR replicons"}},
  "note": "Values joined by “and” are separate entries in the source; they are usually repeats but may differ in a detail not shown here. Equal entries are not always repeated. Where two headings read alike, the source gives them in different places.",
  "data": [
    {"compound": "NC(=O)c1ncn([C@@H]2O[C@H](CO)[C@@H](O)[C@H]2O)n1", "note": "[Ribavirin, ribavirin]", "values": [
      {"measurement": "RSV Mixed Viral Culture % of Control (ave)", "setting": "RSV minigenome [1]; Ribavirin 0.5 μ/ml", "value": "96.16 % of Control"},
      {"measurement": "RSV Mixed Viral Culture % of Control (ave)", "setting": "RSV minigenome [1]; Ribavirin 1 μ/ml", "value": "44.14 % of Control"},
      {"measurement": "RSV Mixed Viral Culture % of Control (ave)", "setting": "RSV minigenome [1]; Ribavirin 10 μ/ml", "value": "42.42 % of Control"},
      {"measurement": "RSV Mixed Viral Culture % of Control (ave)", "setting": "RSV minigenome [1]; Ribavirin 100 μ/ml", "value": "13.90 % of Control"},
      {"measurement": "RSV Single Viral Culture % of Control (ave)", "setting": "RSV minigenome [2]; Ribavirin 0.5 μ/ml", "value": "97.31 % of Control"},
      {"measurement": "RSV Single Viral Culture % of Control (ave)", "setting": "RSV minigenome [2]; Ribavirin 1 μ/ml", "value": "17.86 % of Control"},
      {"measurement": "RSV Single Viral Culture % of Control (ave)", "setting": "RSV minigenome [2]; Ribavirin 10 μ/ml", "value": "3.74 % of Control"},
      {"measurement": "RSV Single Viral Culture % of Control (ave)", "setting": "RSV minigenome [2]; Ribavirin 100 μ/ml", "value": "2.82 % of Control"},
      {"measurement": "effect on Sindbis replicon replication", "setting": "Sindbis replicon", "value": "did inhibit"},
      {"measurement": "Sindbis Mixed Viral Replicon Culture % of Control (ave)", "setting": "Sindbis replicon; Ribavirin 0.5 μg/ml", "value": "40.54 % of Control"},
      {"measurement": "Sindbis Mixed Viral Replicon Culture % of Control (ave)", "setting": "Sindbis replicon; Ribavirin 1 μg/ml", "value": "62.98 % of Control"},
      {"measurement": "Sindbis Mixed Viral Replicon Culture % of Control (ave)", "setting": "Sindbis replicon; Ribavirin 10 μg/ml", "value": "35.04 % of Control"},
      {"measurement": "Sindbis Mixed Viral Replicon Culture % of Control (ave)", "setting": "Sindbis replicon; Ribavirin 100 μg/ml", "value": "18.11 % of Control"},
      {"measurement": "HCV Mixed Viral Replicon Culture % of Control (ave)", "setting": "HCV replicon", "value": "100.37 % of Control and 101.51 % of Control and 99.75 % of Control and 110.22 % of Control"},
      {"measurement": "effect on HCV replication", "setting": "HCV replicon", "value": "no effect"}
    ]},
    {"compound": "α-interferon [IFNα]", "values": [
      {"measurement": "RSV Mixed Viral Culture % of Control (ave)", "setting": "RSV minigenome [1]; IFN-α 100 Units/ml", "value": "84.30 % of Control"},
      {"measurement": "RSV Mixed Viral Culture % of Control (ave)", "setting": "RSV minigenome [1]; IFN-α 1000 Units/ml", "value": "77.80 % of Control"},
      {"measurement": "RSV Single Viral Culture % of Control (ave)", "setting": "RSV minigenome [2]; IFN-α 100 Units/ml", "value": "84.30 % of Control"},
      {"measurement": "RSV Single Viral Culture % of Control (ave)", "setting": "RSV minigenome [2]; IFN-α 1000 Units/ml", "value": "47.29 % of Control"},
      {"measurement": "inhibition of Sindbis replicon", "setting": "Sindbis replicon", "value": "> 98", "unit": "%"},
      {"measurement": "inhibition of HCV replicon", "setting": "HCV replicon", "value": "> 91", "unit": "%"},
      {"measurement": "inhibition of YFR replicon", "setting": "YFR replicon; 100 u/ml IFNα, mixed viral replicon culture", "value": "> 81", "unit": "%"},
      {"measurement": "YFR Mixed Viral Replicon Culture % of Control (ave)", "setting": "YFR replicon; IFNα 1 Units/ml", "value": "41.47 % of Control"},
      {"measurement": "YFR Mixed Viral Replicon Culture % of Control (ave)", "setting": "YFR replicon; IFNα 10 Units/ml", "value": "26.09 % of Control"},
      {"measurement": "YFR Mixed Viral Replicon Culture % of Control (ave)", "setting": "YFR replicon; IFNα 100 Units/ml", "value": "18.64 % of Control"}
    ]}
  ]
}
